# Laboratory results published in patent publication US11944665B2, “Methods and compositions for modulating lymphatic vessels in the central nervous system” (University of Virginia Patent Foundation, priority 2016, dated 2024).
# Columns and labels:
# [1] = test system: meningeal lymphatic vessels; test: Visudyne ablation, OVA-A647 CSF tracer drainage and brain influx (Example 2); type: in vivo, C57BL/6 mice; details: vs vehicle
# Protocol: Adult C57BL/6 mice were injected with visudyne or vehicle (ICM) followed by a step of photoconversion. 7 days post ablation, 2.5 μg of ovalbumin-Alexa647 (OVA-A647) was injected into the CSF (ICM) and mice were transcardially perfused with saline 2 h after. j, Representative sections of dcLNs were stained with DAPI and LYVE-1, and levels of drained OVA-A647 were measured, and representative sections are shown for vehicle (FIG. 24A) and visudyne (FIG. 24B). OVA-A647 alone is shown in the inset in the upper right corner of each of FIGS. 24A and 24B, and LYVE-1 alone is shown in the inset in the lower right corner of each of FIGS. 24A and 24B.
# [2] = test system: nasal lymphatics; test: Nasal lymphatics after intranasal Visudyne (Example 25); type: in vivo, mice; details: 24 h after intranasal (i.n.) injection
# Protocol: Adult mice were injected i.c.m. with Visudyne. Fifteen to thirty minutes injection, Visudyne was converted using a non-thermal 689 nm laser applied on the intact skull. In the targeted group, the laser was aimed at 5 different spots localized above the meningeal lymphatics. In the non-targeted group, the laser was aimed further away to no convert the Visudyne localized within the meningeal lymphatics.
# The density of exogenously injected T cells per mm2 of dCLN in targeted and non-targeted Visudyne treated mice was quantified (FIG. 49A) (expressed as percentage of the control condition)(mean±s.e.m, n=4-6 mice/group, **p=0.0072 Student t test). Images of the nasal lymphatics (Prox1GFP—green, Lyve1—red) were obtained 24 h after laser or intranasal (i.n.) injection of Visudyne. The inset illustrate the lymphatic bundle at the base of the skull that gets ablated after Visudyne treatment. Scale bar=50 μm. The density of T cells per mm2 of dCLN was quantified (FIG. 49B) or percentage of beads coverage was quantified (FIG. 49C) in the dLCN of laser, Visudyne (i.n.)+laser and Visudyne (i.c.m.)+laser treated mice (expressed as percentage of the control condition). […] T cells were quantified in the meninges of laser and Visudyne (i.c.m.)+laser treated mice at 7 days post ablation. T cells were quantified in the meninges of laser and Visudyne (i.c.m.)+laser treated mice (FIG. 49D). […]
# [3] = test system: meningeal lymphatic vessels; test: Visudyne ablation then repeated Aβ42 injection into CSF, meningeal aggregates (Example 8); type: in vivo, C57BL/6 mice; details: Aβ42 2.5 μg every 24 h into CSF for 5 days, from 72 h after ablation, vs vehicle
# Protocol: C57BL/6 adult mice were anesthetized and injected ICM with visudyne to induce meningeal lymphatic vessel ablation, or vehicle as a control. After the photoconversion step, mice were allowed to recover for 72 h. Then, catheters were implanted in the cisterna magna of all mice and 2.5 μg of Aβ42 were injected every 24 h into the CSF for a total of 5 days. […] Results are presented as mean±s.e.m.; n=5 per group; *P<0.05, **P<0.01, one-tailed Mann-Whitney test.
# [4] = test system: 5xFAD (APPSweFILon,PSEN1*M146L*L286V) transgenic mice; test: Visudyne ablation in 5xFAD mice, amyloid pathology (Example 9); type: in vivo; details: ablation every 3 weeks for 1.5 months
# Excerpt: Meningeal lymphatic ablation in 1.5 months-old 5xFAD (APPSweFILon,PSEN1*M146L*L286V) transgenic mice was achieved by ICM injection of visudyne, or vehicle as a control, followed by a step of transcranial photoconversion. This procedure was repeated every 3 weeks, for a total of 1.5 months. Meninges of 5xFAD mice from the different groups were stained with DAPI and for LYVE-1 and Aβ. Aβ aggregates were detected in the meninges of 5xFAD mice that undergone lymphatic ablation by visudyne, but not in the meninges of vehicle-injected mice. Aβ aggregates formed specially around the sinuses and in the cerebellar meninges. Hippocampus was stained for DAPI and Amyloid-beta in vehicle or visudyne-injected 5xFAD mice (scale bar, 1 mm, inset, 200 μm). […] Results are presented as mean±s.e.m.; n=5 per group: *P<0.05, one-tailed Mann-Whitney test.
# [5] = test system: meningeal lymphatic vessels; test: Photoablation of meningeal lymphatic vessels, multiphoton 690 nm laser through thin skull (FIG. 18); type: in vivo, mice; details: 2 μl i.c.v., two hours after the ablation
# Protocol: FIGS. 18A-D are a series of microscope images and graphs showing photoablation of meningeal lymphatic vessels. […] (cisterna magna) with 2 μl of Visudyne, which was activated using 690 nm laser of multiphoton microscope through thin skull. Two hours after the ablation, the meninges were collected and stained for lymphatic endothelial cell (Lyve-1) and blood vessels (laminin).
# [6] = test system: meningeal lymphatic; test: Lymphatic drainage of fluorescent microbeads into deep cervical lymph nodes (FIG. 15); type: in vivo, mice; details: pharmacological ablation, 24 h after ablation, vs PBS
# Protocol: FIGS. 15A-E are a series of diagrams, microscope images, and graphs showing modulation of the meningeal lymphatic affects drainage into the cervical lymph nodes. […] Fluorescent microbeads (0.5 μm in diameter-5 μl) were injected in the lateral ventricle of mice at a rate of 0.5 μl/min. 30 min later, the deep cervical lymph nodes were harvested, sliced and immunostained for the presence of fluorescent beads. FIG. 15B is a pair of representative sections of deep cervical lymph nodes from sham operated (left) and ligated (right) mice immunostained for lymphatic vasculature (Lyve-1), fluorescent microbeads and Lyve-1. Note the accumulation of microbeads in the subcapsular space of the lymph nodes in the sham operated mice (left). […] N=3-4 mice per group, Student-t-test. d. Quantification of the coverage of dCLN section by fluorescent beads in PBS and Visudyne injected mice (24 h after ablation). N=3-5 mice per group, *p<0.05, Student-t-test. e. Quantification of the coverage of dCLN section by fluorescent beads in PBS and VEGF-c injected mice (5 days after VEGF-c injection). N=4 mice per group.
# [7] = test system: meningeal lymphatic vessels; test: Visudyne ablation in old mice, OVA-A647 CSF tracer (Example 3); type: in vivo, C57BL/6 mice; details: old (20-24 months-old) mice, 7 days post ablation, vs old+vehicle
# Protocol: Injections of visudyne or vehicle (ICM), followed by a photoconversion step, were performed in adult (3 months-old) or old (20-24 months-old) C57BL/6 mice. 7 days post ablation, OVA-A647 (2.5 μg) was injected into the CSF (ICM) and mice were transcardially perfused with saline 2 h after.
substance,measurement,setting,value
verteporfin [Visudyne],amount of OVA-A647 drained into the dcLNs,"[1]; 2 h after OVA-A647 2.5 μg ICM, 7 days post ablation",significantly decreased
same,OVA-A647 influx into the brain parenchyma,"[1]; 2 h after OVA-A647 ICM, 7 days post ablation",significant decrease
same,brain parenchyma coverage by aquaporin 4 (AQP4) expressing cells,"[1]; adult mice, visudyne-induced ablation",no changes
same,nasal lymphatic bundle at the base of the skull,[2],gets ablated
same,area occupied by Aβ aggregates in meningeal whole-mounts,[3],significant increase in aggregates
same,Aβ aggregates in the meninges,[4]; not in vehicle-injected mice,detected
same,amyloid plaque coverage in the hippocampus,[4]; vs vehicle,statistically significant increase
same,amyloid plaque number in the hippocampus,[4]; vs vehicle,statistically significant increase
same,amyloid plaque size in the hippocampus,[4]; vs vehicle,trend for increased plaque size
same,effect on the blood vessels (laminin),[5],No effect on the blood vessels was observed
same,lymphatic vessels at the area of ablation (superior sagittal sinus),[5],Disruption of lymphatic vessels is evident
same,lymphatic vessels in transverse sinuses,[5],trend to disruption
same,lymphatic drainage into the cervical lymph nodes after ablation,[6],alteration of lymphatic drainage
same,influx of a CSF tracer (OVA-A647) into the brain,[7],does not further aggravate
